Results on two molecules are retold here after patent US10350334B2, “Catheter locking solution having antimicrobial and anticoagulation properties” (Becton, Dickinson and Company, priority 2009, dated 2019).

One assay concerns S. epidermidis. Kind of assay: Minimum Biofilm Inhibitory Concentration (MBIC) test. In kind it is cell-based, Staphylococcus epidermidis. The following applies: for MBIC: adhered cells, 24 hours incubation; for MBIC Assuming 2 mL lock volume: amount in 2 mL lock volume. On the procedure:
(§1) To further evaluate the efficacy of local anesthetics in antimicrobial lock solutions of the present invention, the minimum concentration at which these drugs can inhibit biofilm growth was tested. The local anesthetics identified in Table 4 were tested against three different species of bacteria identified in Table 3 to assess the antimicrobial efficacy against adhered microbes. It is known that adhered microbes, or biofilms, can be more resistant to antimicrobials than planktonic cells.
(§2) Experiments were conducted against adhered microbes as follows: first, a test tube containing 10 mL of sterile TSB was inocubated with BD BBL™ Qualiswab™, with the strain of interest. The tube was placed in an incubator at 37° C. overnight. The next day, a flask containing 25 mL of sterile TSB (or Sabouraud Dextrose Broth (SDB) for fungal species) was inoculated with 1 mL of bacterial suspension. The flask was placed in an incubator at 37° C. and shaken at 150 RPM. The next day a new flask containing 25 mL of TSB (or SDB) media was inoculated with 1 mL from the previous culture. The bacterial or fungal species were allowed to grow to log phase.
(§3) After the microbes entered the log phase, their concentration was checked to ensure that they had reached a minimum of 1×10^8 CFU/mL per a 0.5 MacFarland standard. Microbes were diluted to a concentration of 1×10^5 CFU/mL using a nephelometer and 200 μL of the microbial suspensions were plated on each of the wells of a 96 well plate. The plate was incubated in a standard incubator at 37° C. for 2 hours to allow for microbial cell adhesion. Next, dilutions of the desired concentrations of antimicrobials were prepared. In a separate, blank plate, 1:2 serial dilutions were prepared with the highest concentration of the antimicrobial to the left of the plate, decreasing in concentration towards the right of the plate. For example, 170 μL of the highest concentration of an antimicrobial was dispensed in column 1 (left of plate). Each of the rest of the columns received 170 μL of saline. Column 2 received 170 μL of antimicrobial, making for a 1:2 dilution (or 50% of original concentration). Contents of Column 2 were then transferred to 3, then from 3 to 4, and so forth. Each well was supplemented with 20% media (TSB for S. epidermidis and P. aeruginosa and SDB for C. albicans), thereby ensuring the viability of the cells over the test time period (24 hours). Positive control wells had 20% media in saline. The bacterial plate was removed from the incubator, and bacterial suspension discarded (adhered cells remain on plate). The antimicrobial formulations identified in Table 4 were then added to the bacterial plate and incubated in a standard incubator at 37° C. for 24 hours. After this time period, solutions in the plate were discarded and plates were rinsed with 200 μL of saline. The cells were then fixed with 200 μL of 95% ethanol for 30 minutes, and allowed to air dry for 10 minutes. Next, the cells were stained for 20 minutes with 250 μL of a filtered solution of 2% crystal violet dye. The plates were then rinsed three times with water, and the 2% crystal violet dye was solubilized with 300 μL of 95% ethanol. The plates were allowed to stand for 10 minutes to complete solubilization and then the plates were read on a spectrophotometer at 570 nm absorbance, wherein high absorbance readings of >0.600 indicated microbial growth. Columns in the plate that had no growth were recorded as the […] (MBIC). FIG. 2 illustrates the MBIC corresponding to the specific local anesthetics.

The subject of the next assay is C. albicans. Described as above. In kind it is cell-based, Candida albicans. The following applies: for MBIC: adhered cells, 24 hours incubation; for MBIC Assuming 2 mL lock volume: amount in 2 mL lock volume. On the procedure: as §1, §2, §3
Another assay relates to P. aeruginosa. Described as above. In kind it is cell-based, Pseudomonas aeruginosa. The following applies: for MBIC: adhered cells, 24 hours incubation; for MBIC Assuming 2 mL lock volume: amount in 2 mL lock volume. On the procedure: as §1, §2, §3
In a further assay the test system is Candida albicans biofilm. Kind of assay: Catheter biofilm eradication (catheter segment test) on silicone tubing. It is filed as cell-based. The following applies: 1 hour, silicone catheter segments. On the procedure:
(§4) To understand the antimicrobial effects of the local anesthetics used in the lock solution of the present invention in a clinical setting, a biofilm was grown on silicone catheter-like tubing and treated with various concentrations of local anesthetics. First, a sterile silicone catheter-like tube containing 10 mL TSB media was inoculated with a BD BBL™ Qualiswab™, and placed in an incubator at 37° C. overnight. The next day, a sterile flask containing 25 mL TSB (for bacterial species) or 25 mL SDB (for fungal species) was inoculated with the cultured cells. The morning of the experiment, a new flask containing 25 mL of media was inoculated with the new overnight suspension. These steps were taken to ensure that cells were in the log phase, which for S. epidermidis was ˜3-4 hours, and for C. albicans was around ˜18 hrs. […] Microbial concentrations were adjusted to 1×10^5 CFU/mL by dilution with appropriate media. Silicone catheter-like tubing was terminally sterilized by autoclaving the tube for 45 minutes at 121° C. The sterilized catheter-like tubing was inoculated with 1×10^5 CFU/mL for 2 hours under continuous flow. Continuous flow was created by using a peristaltic pump, in which bacterial suspension was flowed through the catheter segments into a waste reservoir. After the 2 hour time period, the same set up was used to pump TSB media through the tubing for an additional 24 hours to allow biofilm to form on the walls of the catheter lumen. After 24 hours, sterilized saline was pumped through the lumen for 30 minutes to rinse the catheters. Catheters were then cut into 1 inch segments using sterile techniques. Catheter segments were dropped into sterile tubes containing 4 mL of antimicrobials, and incubated in a 37° C. incubator shaker for 1 hour. Segments were removed from treatment tubes and placed into new tubes filled with 6 mL of sterile saline. Each segment was swabbed with a sterile swab and both the tube and the swab were sonicated (Ultrasonic cleaner VWR Model 250T) for 3 minutes. Tubes and swabs were then vortexed (Fisher Scientific Vortex Mixer #02-215-365) for 30 seconds each. One hundred microliters of suspension was plated onto TSB agar plates (SDB for fungal species). The remaining 5.9 mL of suspension was passed through 0.4 μm filters and filters were placed on TSB plates. This step was taken to ensure that all possible bacteria were being recovered. All TSB plates were then incubated at 37° C. in a static incubator for 24-48 hours, at which time colony forming units were counted.

Assay [1] has as its system Staphylococcus epidermidis biofilm. The assay is described as above. The following applies: 1 hour, silicone catheter segments. In kind it is cell-based. On the procedure: as §4

Molecules are shown by their SMILES.

With `CCCCNc1ccc(C(=O)OCCN(C)C)cc1.Cl` [Tetracaine, Tetracaine HCl], the MBIC was 0.94 mg/mL in the assay with S. epidermidis (HCl); 0.9 mg/mL with S. epidermidis (listed as tetracaine, HCl); 0.24 mg/mL in the assay with C. albicans; 6.41 mg/mL in the assay on P. aeruginosa (HCl); 1.88 mg/mL in the assay on P. aeruginosa (listed as tetracaine, HCl). The “MBIC Assuming 2 mL lock volume” value in the assay with S. epidermidis is on record as 1.88 mg; in the assay on C. albicans, 0.48 mg; in the assay with P. aeruginosa, 12.82 mg. For the same molecule, the “eradication of established biofilm” value in the assay with Candida albicans biofilm (30 mg/mL) is “completely eradicated”. In addition, the “Log reduction of established biofilm” value in assay [1] (30 mg/mL) was 1.7 Log.

Regarding `CCCCN1CCCCC1C(=O)Nc1c(C)cccc1C.Cl` (stereo not drawn) [Bupivacaine, Bupivacaine HCl], the results for the MBIC in the assay on S. epidermidis, in the assay on C. albicans and with P. aeruginosa were 8.12 mg/mL, “No inhibition” and 16.25 mg/mL, respectively. In addition, the “MBIC Assuming 2 mL lock volume” value in the assay on S. epidermidis was 16.24 mg; in the assay on C. albicans, “No inhibition”; with P. aeruginosa it was 32.5 mg. The entries for the “Log reduction of established biofilm” value (in the assay on Candida albicans biofilm; in assay [1] (16 mg/mL)) were approximately 1 Log and approximately 0.5 Log, respectively.
